Assay results: ChEMBL document CHEMBL3867471, “Identification of lead small molecule inhibitors of glycogen synthase kinase-3 beta using a fragment-linking strategy” (Bioorg Med Chem Lett, 2016)
pIC50: −log10 of the molar value.

Target: Glycogen synthase kinase-3 beta (Homo sapiens, UniProt P49841)
Assay: Inhibition of human GSK3beta using YRRAAVPPSPSLSRHSSPHQ(pS)EDEEE as substrate in presence of gamma-33P-ATP

Sequence of Glycogen synthase kinase-3 beta (P49841 whole entry): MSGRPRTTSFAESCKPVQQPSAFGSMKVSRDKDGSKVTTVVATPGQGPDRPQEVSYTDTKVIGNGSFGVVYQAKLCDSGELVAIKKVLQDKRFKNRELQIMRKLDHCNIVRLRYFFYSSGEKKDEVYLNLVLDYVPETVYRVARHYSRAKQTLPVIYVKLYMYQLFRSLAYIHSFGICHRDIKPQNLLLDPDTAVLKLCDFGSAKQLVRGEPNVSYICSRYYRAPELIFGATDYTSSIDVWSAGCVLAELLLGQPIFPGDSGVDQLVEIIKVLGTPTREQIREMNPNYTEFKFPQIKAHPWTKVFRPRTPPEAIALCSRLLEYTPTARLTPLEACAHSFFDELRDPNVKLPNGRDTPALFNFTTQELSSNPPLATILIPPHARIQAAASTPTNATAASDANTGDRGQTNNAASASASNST

SMILES | pIC50
O=C(CNC(=O)c1cnc2[nH]c(-c3ccccc3)cc2c1)NCCc1c[nH]c2ccccc12 | < 4.30
O=C(/C=C/c1cnc2[nH]cc(-c3ccccc3)c2c1)N[C@@H](CO)Cc1ccccc1 | 6.12
O=C(/C=C/c1cnc2[nH]cc(-c3ccccc3)c2c1)NCCc1cccnc1 | 7.49
O=C(/C=C/c1cnc2[nH]cc(-c3ccccc3)c2c1)NCCc1c[nH]cn1 | 7.31
O=C(CNC(=O)c1cnc2[nH]cc(-c3ccccc3)c2c1)NCCc1c[nH]cn1 | 5.58
O=C(CNC(=O)c1cnc2[nH]ccc2c1)NCCc1c[nH]c2ccccc12 | < 4.30
O=C(CNC(=O)c1ccc2[nH]cc(-c3ccccc3)c2c1)NCCc1c[nH]c2ccccc12 | < 4.30
C[C@@H](NC(=O)/C=C/c1cnc2[nH]cc(-c3ccccc3)c2c1)[C@@H](O)c1ccccc1 | 6.74
O=C(/C=C/c1cnc2[nH]cc(-c3ccccc3)c2c1)NCCc1ccccn1 | 7.72
O=C(CNC(=O)c1cnc2[nH]cc(C(=O)c3ccccc3)c2c1)NCCc1c[nH]c2ccccc12 | 4.80
